Measured values as given in ChEMBL document CHEMBL1201862, “PubChem BioAssay data set” (2004).
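The compound was tested at five concentrations on cells cultured in 96-well plates, with a 48-hour exposure period. GI50 is the concentration that inhibits growth by half.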 Calls of active or inactive are those of the source. Cut-off read from the data, not from the text of the source: active = GI50 up to about 1.1 µM and inactive = higher.

Columns and labels:
Experiment in all cases: growth of human tumour cells (NCI), 48 h
DMS-273 = system: DMS-273
LXFL 529 = system: LXFL 529
RXF 631 = system: RXF 631
M19-MEL = system: M19-MEL
DLD-1 = system: DLD-1
BT-549 = system: BT-549
HOP-18 = system: HOP-18
DMS-114 = system: DMS-114
XF498 = system: XF498

Which results are given for CC1C2C=C(O)C(=O)C(C2=O)C1c1ccccc1 (stereo not given)?
GI50 (DMS-273): > 100 µM (inactive); GI50 (LXFL 529): > 100 µM (inactive); GI50 (RXF 631): > 100 µM (inactive); GI50 (M19-MEL): > 100 µM (inactive); GI50 (DLD-1): > 100 µM (inactive)

COC[C@@H](/N=C/c1ccc(OC)cc1)C(C)C was tested. Which GI50 (BT-549) did it give?
Its GI50 is > 100 µM (inactive).

Cc1cc(C)cc(Nc2cc(O)nc(O)n2)c1 was tested. Which GI50 (BT-549) did it give?
Its GI50 is > 100 µM (inactive).

C#Cc1c(C)c(/C=C/C(C)=C/C(=O)OC)n(C)c1C was tested. Which GI50 (HOP-18) did it give?
Its GI50 is > 100 µM (inactive).

What about the GI50 (DMS-273) of the same compound?
Its GI50 is 88.7 µM (inactive).

What about the GI50 (DMS-114) of the same compound?
The GI50 was 36.1 µM (inactive).

What about the GI50 (XF498) of the same compound?
Its GI50 is 77.3 µM (inactive).

What about the GI50 (LXFL 529) of the same compound?
Its GI50 is 99.8 µM (inactive).

And the GI50 (M19-MEL)?
The GI50 was > 100 µM (inactive).

And the GI50 (DLD-1)?
Its GI50 is 79.4 µM (inactive).

How did the GI50 (BT-549) turn out when CN(Cc1cc(C(C)(C)C)cc(Br)c1O)Cc1cc(C(C)(C)C)cc(Br)c1O was run?
Its GI50 is 4 µM (inactive).

COC(=O)[C@@H]1[C@H](O)[C@H](C)[C@H](O)[C@H](C)/C=C\C=C(\C)C(=O)Nc2c(C)c(OC(C)=O)c3c(c2O)C(=O)C(C)=C2OCOC(=C23)/C(C)=C/[C@@H](O)[C@H](O)[C@@H](C)[C@H]1OC(C)=O was tested. Which GI50 (BT-549) did it give?
Its GI50 is > 100 µM (inactive).

For Cc1ccc(S(=O)(=O)NC(=O)NC(Cc2c[nH]c3ccccc23)C(=O)O)cc1 (stereo not given), which GI50 (BT-549) is on record?
Its GI50 is > 100 µM (inactive).

Which GI50 (BT-549) does the source give for CCOC(=O)NC(C(=O)OCC)(N1CCN(c2cc3c(cc2F)c(=O)c(C(=O)O)cn3CC)CC1)C(F)(F)F (stereo not given) here?
Its GI50 is > 100 µM (inactive).

Which results are given for CCOC(=O)c1c(-c2[nH]c(C(=O)OCc3ccccc3)c(C)c2C(=O)OCC)[nH]c(C(=O)OCc2ccccc2)c1C?
GI50 (HOP-18): > 100 µM (inactive); GI50 (DMS-273): > 100 µM (inactive); GI50 (DMS-114): > 100 µM (inactive); GI50 (LXFL 529): > 100 µM (inactive); GI50 (M19-MEL): > 100 µM (inactive); GI50 (DLD-1): > 100 µM (inactive)

With Cc1cnc2sn(-c3ccc(Oc4ccccc4)cc3)c(=O)c2c1 as the compound, how does the GI50 (BT-549) read?
Its GI50 is 23.8 µM (inactive).

Which GI50 (BT-549) does the source give for OCC1OC(n2cnc3c(Cl)nc(Nc4ccc(Cl)c(Cl)c4)nc32)CC1O (stereo not given) here?
Its GI50 is 9.98 µM (inactive).

How did the GI50 (BT-549) turn out when CN(C)c1ccc(/C=c2/c3ccccc3n3c2cc(C24CC5CC(CC(C5)C2)C4)[n+]3C)cc1 was run?
Its GI50 is 0.245 µM (active).

For NCCCN1c2ccccc2Sc2ccc(Cl)cc21, which GI50 (BT-549) is on record?
Its GI50 is > 7.62 µM (inactive).

Which results are given for COc1ccc(/N=C\c2ccc(N(CCC#N)CCC#N)cc2)cc1?
GI50 (HOP-18): > 100 µM (inactive); GI50 (DMS-273): 31.4 µM (inactive); GI50 (DMS-114): 27.5 µM (inactive); GI50 (XF498): > 100 µM (inactive); GI50 (LXFL 529): 7.11 µM (inactive); GI50 (M19-MEL): 34.1 µM (inactive); GI50 (DLD-1): 24.9 µM (inactive); GI50 (BT-549): > 38.9 µM (inactive)

Which GI50 (DMS-273) does the source give for N#CCC(=O)N1CCCOCCC1 here?
The GI50 was > 100 µM (inactive).

And the GI50 (DMS-114)?
Its GI50 is > 100 µM (inactive).

And the GI50 (LXFL 529)?
The GI50 was > 100 µM (inactive).

And the GI50 (RXF 631)?
The GI50 was > 100 µM (inactive).

And the GI50 (M19-MEL)?
Its GI50 is > 100 µM (inactive).

What about the GI50 (DLD-1) of the same compound?
The GI50 was > 100 µM (inactive).

How did the GI50 (DMS-273) turn out when C=C1C(=O)OC2C1CC[C@H](C)C13OC(=O)CC1[C@@]23C (stereo not given in full) was run?
Its GI50 is > 100 µM (inactive).

What about the GI50 (DMS-114) of the same compound?
Its GI50 is > 100 µM (inactive).

What about the GI50 (LXFL 529) of the same compound?
The GI50 was > 100 µM (inactive).

And the GI50 (M19-MEL)?
Its GI50 is > 100 µM (inactive).

What about the GI50 (DLD-1) of the same compound?
The GI50 was > 100 µM (inactive).

For O=C1C=C(c2c(-c3ccccc3)[nH]c3ccccc23)C(=O)N1c1ccccc1, which GI50 (BT-549) is on record?
The GI50 was 6.73 µM (inactive).

With CCC1C(C)c2c([nH]c3ccccc23)C2C(=O)N(c3ccccc3)C(=O)C21 (stereo not given) as the compound, how does the GI50 (DMS-273) read?
The GI50 was 17.8 µM (inactive).

What about the GI50 (DMS-114) of the same compound?
Its GI50 is 13.4 µM (inactive).

What about the GI50 (XF498) of the same compound?
Its GI50 is 21.5 µM (inactive).

What about the GI50 (LXFL 529) of the same compound?
The GI50 was 19.6 µM (inactive).

What about the GI50 (RXF 631) of the same compound?
The GI50 was 13.5 µM (inactive).

And the GI50 (M19-MEL)?
Its GI50 is 15.8 µM (inactive).

What about the GI50 (DLD-1) of the same compound?
The GI50 was 10.6 µM (inactive).

O=C1N/C(=N/N=C/C(O)C(O)C(O)C(O)CO)N/C1=C\c1ccco1 (stereo not given) was tested. Which GI50 (BT-549) did it give?
The GI50 was > 100 µM (inactive).

Which results are given for COc1ccc(OC)c(/C(C)=N/NC(N)=S)c1?
GI50 (HOP-18): > 100 µM (inactive); GI50 (DMS-273): > 100 µM (inactive); GI50 (DMS-114): > 100 µM (inactive); GI50 (XF498): > 100 µM (inactive); GI50 (LXFL 529): > 100 µM (inactive); GI50 (M19-MEL): > 100 µM (inactive); GI50 (DLD-1): > 100 µM (inactive)

How did the GI50 (BT-549) turn out when CC(C)(C)N1C=[N+](C(C)(C)C)CC1 was run?
Its GI50 is > 100 µM (inactive).

Which GI50 (BT-549) does the source give for C=C1C(=O)OC2C1C(OC(=O)/C(C)=C/C)CC1(C)C(=O)CCC(=C)C21 (stereo not given) here?
Its GI50 is 6.27 µM (inactive).

Which results are given for CC(C)N1CN(C(C(=O)N[C@@H]2C(=O)N3C2SC(C)(C)C3C(=O)O)c2ccc(O)cc2)CSC1=S (stereo not given in full)?
GI50 (HOP-18): > 100 µM (inactive); GI50 (DMS-273): > 100 µM (inactive); GI50 (DMS-114): > 100 µM (inactive); GI50 (XF498): > 100 µM (inactive); GI50 (LXFL 529): > 100 µM (inactive); GI50 (M19-MEL): > 100 µM (inactive); GI50 (DLD-1): > 100 µM (inactive)

What does the source list for CC(=O)C1(O)CC2(c3ccccc3)C(=O)C1(c1ccccc1)C(c1ccccc1)=C2c1ccccc1 (stereo not given)?
GI50 (DMS-273): 44.3 µM (inactive); GI50 (DMS-114): 10.9 µM (inactive); GI50 (XF498): 6.24 µM (inactive); GI50 (LXFL 529): > 100 µM (inactive); GI50 (RXF 631): 89.1 µM (inactive); GI50 (M19-MEL): > 100 µM (inactive); GI50 (DLD-1): > 100 µM (inactive)

Which GI50 (BT-549) does the source give for COc1ccc(-c2csc(Cc3nc4ccccc4c(=O)n3-c3ccc(Cl)cc3)n2)cc1 here?
Its GI50 is 45 µM (inactive).

Which GI50 (DMS-273) does the source give for CN(C)c1ccccc1CC(c1c[nH]c2ccccc12)c1c[nH]c2ccccc12 here?
The GI50 was 13 µM (inactive).

And the GI50 (DMS-114)?
Its GI50 is 7.62 µM (inactive).

And the GI50 (XF498)?
The GI50 was 17.3 µM (inactive).

And the GI50 (M19-MEL)?
The GI50 was 14.9 µM (inactive).

What about the GI50 (DLD-1) of the same compound?
The GI50 was 15.7 µM (inactive).
